According to patent US4372953A, “Tetrazole derivatives, and anti-ulcer composition containing the same” (Otsuka Pharmaceutical Company, Limited, priority 1980, dated 1983):

test system: gastric juice secretion; assay: Shay rat pylorus ligation method (gastric juice secretion-inhibiting activity); format: in vivo, male Wistar rats; settings: 100 mg/kg, duodenal route, 4 hours after ligation
Procedure: The pharmacological activities of the compounds (1) were tested by a Shay rat pylorus ligation method (cf. H. Shay et al: Gastroenterol., Vol. 5, page 43, 1945) which is the most popular method for testing of gastric juice secretion-inhibiting activity. The test was carried out by using male Wistar rats, weighing about 170 g and fasting for 24 hours.
Test compounds were administered 30 minutes before the pylorus ligation in a dose of 100 mg/kg in subcutaneous route in case of test compounds 37, 38, 50, 51 and 52, in a dose of 200 mg/kg in subcutaneous route in case of test compounds 105 and 106 and in dose of 100 mg/kg in duodenal route in case of other test compounds, and the volume, total acidity and pepsin activity of the gastric juice were measured 4 hours after the ligation. As a control, a saline solution was administered instead of the test compound. The inhibitory ratio (%) of the test compounds were calculated when the inhibitory activities of the control were counted as zero (0).
(§1) In the table, the inhibitory ratio (%) was evaluated as follows: […]

Compound	Inhibitory ratio, volume of gastric juice
Br.CNC(=N)SCCCCSc1nnnn1C [Test compound 27, 1-Methyl-2-[4-(1-methyl-1,2,3,4-tetrazol-5-yl)thiobutyl]isothiourea hydrobromide]	+ +
Cn1nnnc1SCCSc1nnnn1C [Test compound 35, 1-Methyl-5-[2-(1-methyl-1,2,3,4-tetrazol-5-yl)thioethyl]thio-1,2,3,4-tetrazole]	+ +

same assay, conditions: Rattus norvegicus, 4 h, 100 mg/kg, duodenal route, 4 hours after ligation; read-out: Inhibitory ratio, pepsin activity

Compound	inhibition in vivo at 100 mg/kg [%]
Cn1nnnc1SCCCNC(=O)C1CCCCC1 [Test compound 81, 1-Methyl-5-(3-cyclohexylcarbonylaminopropyl)thio-1,2,3,4-tetrazole]	10 to 50

same assay, conditions: Rattus norvegicus, 4 h, 100 mg/kg, duodenal route, 4 hours after ligation; read-out: Inhibitory ratio, total acidity

Compound	inhibition in vivo at 100 mg/kg [%]
Cn1nnnc1SCCCNC(=O)C1CCCCC1 [Test compound 81, 1-Methyl-5-(3-cyclohexylcarbonylaminopropyl)thio-1,2,3,4-tetrazole]	10 to 50

same assay, conditions: Rattus norvegicus, 4 h, 100 mg/kg, duodenal route, 4 hours after ligation; read-out: Inhibitory ratio, volume of gastric juice

Compound	inhibition in vivo at 100 mg/kg [%]
Cn1nnnc1SCCCSc1ccccc1 [Test compound 10, 1-Methyl-5-(3-phenylthiopropyl)thio-1,2,3,4-tetrazole]	10 to 50
Cn1ccnc1SCCCSc1nnnn1C [Test compound 11, 1-Methyl-5-[3-(1-methylimidazol-2-yl)thiopropyl]thio-1,2,3,4-tetrazole]	> 50
Cc1ccnc(SCCCSc2nnnn2C)n1 [Test compound 13, 1-Methyl-5-[3-(4-methyl-2-pyrimidyl)thiopropyl]thio-1,2,3,4-tetrazole]	> 50
Cn1nnnc1SCCCSCc1csc(N)n1 [Test compound 17, 1-Methyl-5-[3-(2-amino-4-thiazolyl)methylthiopropyl]thio-1,2,3,4-tetrazole]	10 to 50
Cn1nnnc1SCCCSc1ccc2ccccc2n1 [Test compound 18, 1-Methyl-5-[3-(2-quinolyl)thiopropyl]thio-1,2,3,4-tetrazole]	10 to 50
Cn1nnnc1SCCCSc1nc2ccccc2[nH]1 [Test compound 19, 1-Methyl-5-[3-(2-benzimidazolyl)thiopropyl]thio-1,2,3,4-tetrazole]	10 to 50
Cn1nnnc1SCCCSCc1ccco1 [Test compound 21, 1-Methyl-5-[3-(2-furyl)methylthiopropyl]thio-1,2,3,4-tetrazole]	> 50
Cn1nnnc1SCCCSCc1ccccc1 [Test compound 22, 1-Methyl-5-(3-benzylthiopropyl)thio-1,2,3,4-tetrazole]	> 50
Cn1nnnc1SCCCSCc1ccccn1 [Test compound 23, 1-Methyl-5-[3-(2-pyridyl)methylthiopropyl]thio-1,2,3,4-tetrazole]	10 to 50
Cn1nnnc1SCCCCSc1ccccc1 [Test compound 28, 1-Methyl-5-(4-phenylthiobutyl)thio-1,2,3,4-tetrazole]	10 to 50
Cn1nnnc1SCCCCSc1nc2ccccc2c(=O)[nH]1 [Test compound 29, 1-Methyl-5-[4-(4-oxo-3,4-dihydroquinazolin-2-yl)thiobutyl]thio-1,2,3,4-tetrazole]	10 to 50
Cn1nnnc1SCCSc1ccccn1 [Test compound 31, 1-Methyl-5-[2-(2-pyridyl)thioethyl]thio-1,2,3,4-tetrazole]	> 50
Cn1nnnc1SCCCCCSc1ccccn1 [Test compound 32, 1-Methyl-5-[5-(2-pyridyl)thiopentyl]thio-1,2,3,4-tetrazole]	10 to 50
Cn1nnnc1SCCCCCCSc1ccccn1 [Test compound 33, 1-Methyl-5-[6-(2-pyridyl)thiohexyl]thio-1,2,3,4-tetrazole]	10 to 50
CC(CSc1ccccn1)CSc1nnnn1C (stereo not drawn) [Test compound 34, 1-Methyl-5-[2-methyl-3-(2-pyridyl)thiopropyl]thio-1,2,3,4-tetrazole]	> 50
Cn1nnnc1SCCCCS(=O)(=O)c1nnnn1C [Test compound 47, 4-(1-Methyl-1,2,3,4-tetrazol-5-yl)thiobutyl 1-methyl-1,2,3,4-tetrazol-5-yl sulfone]	> 50
Cn1nnnc1SCCCS(=O)(=O)c1ccccn1 [Test compound 48, 3-(1-Methyl-1,2,3,4-tetrazol-5-yl)thiopropyl 2-pyridyl sulfone]	10 to 50
COc1ccc(C(=O)CCCSc2nnnn2C)cc1 [Test compound 63, 1-Methyl-5-[3-(4-methoxybenzoyl)propyl]thio-1,2,3,4-tetrazole]	10 to 50
Cn1nnnc1SCCCCC(=O)c1ccccc1 [Test compound 71, 1-Methyl-5-(4-benzoylbutyl)thio-1,2,3,4-tetrazole]	10 to 50
Cn1nnnc1SCCCNC(=O)C1CCCCC1 [Test compound 81, 1-Methyl-5-(3-cyclohexylcarbonylaminopropyl)thio-1,2,3,4-tetrazole]	10 to 50
CCN(CCCSc1nnnn1C)C(=O)C1CCCC1 [Test compound 92, 1-Methyl-5-[3-(N-ethyl-N-cyclopentylcarbonylamino)propyl]thio-1,2,3,4-tetrazole]	10 to 50
Cn1nnnc1SCc1ccccn1 [Test compound 98, 1-Methyl-5-(2-pyridylmethyl)thio-1,2,3,4-tetrazole]	> 50

same assay, conditions: Rattus norvegicus, sc, 4 h, 100 mg/kg, subcutaneous route, 4 hours after ligation; read-out: Inhibitory ratio, pepsin activity

Compound	inhibition in vivo at 100 mg/kg [%]
Cn1nnnc1SCCCSc1nnnn1C [Test compound 37, 1-Methyl-5-[3-(1-methyl-1,2,3,4-tetrazol-5-yl)thiopropyl]thio-1,2,3,4-tetrazole]	> 50
c1ccc(-n2nnnc2SCCCSc2nnnn2-c2ccccc2)cc1 [Test compound 38, 1-Phenyl-5-[3-(1-phenyl-1,2,3,4-tetrazol-5-yl)thiopropyl]thio-1,2,3,4-tetrazole]	10 to 50
CCC(=O)CCCSc1nnnn1C [Test compound 50, 1-Methyl-5-(3-propionylpropyl)thio-1,2,3,4-tetrazole]	> 50

same assay, conditions: Rattus norvegicus, sc, 4 h, 100 mg/kg, subcutaneous route, 4 hours after ligation; read-out: Inhibitory ratio, total acidity

Compound	inhibition in vivo at 100 mg/kg [%]
Cn1nnnc1SCCCSc1nnnn1C [Test compound 37, 1-Methyl-5-[3-(1-methyl-1,2,3,4-tetrazol-5-yl)thiopropyl]thio-1,2,3,4-tetrazole]	> 50
c1ccc(-n2nnnc2SCCCSc2nnnn2-c2ccccc2)cc1 [Test compound 38, 1-Phenyl-5-[3-(1-phenyl-1,2,3,4-tetrazol-5-yl)thiopropyl]thio-1,2,3,4-tetrazole]	10 to 50
CCC(=O)CCCSc1nnnn1C [Test compound 50, 1-Methyl-5-(3-propionylpropyl)thio-1,2,3,4-tetrazole]	> 50

same assay, conditions: Rattus norvegicus, sc, 4 h, 100 mg/kg, subcutaneous route, 4 hours after ligation; read-out: Inhibitory ratio, volume of gastric juice

Compound	inhibition in vivo at 100 mg/kg [%]
Cn1nnnc1SCCCSc1nnnn1C [Test compound 37, 1-Methyl-5-[3-(1-methyl-1,2,3,4-tetrazol-5-yl)thiopropyl]thio-1,2,3,4-tetrazole]	> 50
c1ccc(-n2nnnc2SCCCSc2nnnn2-c2ccccc2)cc1 [Test compound 38, 1-Phenyl-5-[3-(1-phenyl-1,2,3,4-tetrazol-5-yl)thiopropyl]thio-1,2,3,4-tetrazole]	10 to 50
CCC(=O)CCCSc1nnnn1C [Test compound 50, 1-Methyl-5-(3-propionylpropyl)thio-1,2,3,4-tetrazole]	> 50

test system: stress ulcer; assay: Stress ulcer (restraint and water immersion); format: in vivo, male Wistar rats; settings: Rattus norvegicus, po, 7 h, 300 mg/kg, 0.5% CMC suspension, read-out: Inhibitory ratio of stress ulcer
Procedure: After male Wistar rats weighing about 170 g was fasted for 24 hours, the rats were restrained in a stress cage and dipped in water bath at 23° C. till chest of the animals. After 7 hours, the rats were killed and the stomach was isolated. Into the isolated stomach 10% formalin (8 ml) was poured and settled. The stomach was cut open at the greater curvature, and the length of each ulcer on the membrane was measured. Sum of the length of all ulcers was shown as ulcer index (UI). The test compound was orally administered to the rats before restraint in a stress cage in a dose of 300 mg/kg in the form of 0.5% CMC suspension in case of test compounds 3, 4, 6, 15 and 27 and in a concentration of 1×10^-3 mole in case of other test compounds. As a control, only the solvent (CMC solution) was administered likewise. The inhibitory ratio (%) of stress ulcer of the test compounds was calculated by the following equation: [formula]
as §1

Compound	inhibition in vivo at 300 mg/kg [%]
Cc1nnc(SCCCSc2nnnn2C)n1C [Test compound 15, 1-Methyl-5-[3-(4,5-dimethyl-1,2,4-triazol-3-yl)thiopropyl]thio-1,2,3,4-tetrazole]	> 60
Br.CNC(=N)SCCCCSc1nnnn1C [Test compound 27, 1-Methyl-2-[4-(1-methyl-1,2,3,4-tetrazol-5-yl)thiobutyl]isothiourea hydrobromide]	> 60

same assay, conditions: Rattus norvegicus, po, 7 h, concentration of 1×10^-3 mole, read-out: Inhibitory ratio of stress ulcer

Compound	inhibition in vivo [%]
Cn1nnnc1SCCCSCc1csc(N)n1 [Test compound 17, 1-Methyl-5-[3-(2-amino-4-thiazolyl)methylthiopropyl]thio-1,2,3,4-tetrazole]	> 60
Cn1nnnc1SCCCSc1ccncc1 [Test compound 25, 1-Methyl-5-[3-(4-pyridyl)thiopropyl]thio-1,2,3,4-tetrazole]	> 60
Cn1nnnc1SCCSc1ccccn1 [Test compound 31, 1-Methyl-5-[2-(2-pyridyl)thioethyl]thio-1,2,3,4-tetrazole]	> 60
Cn1nnnc1SCCCCCCSc1ccccn1 [Test compound 33, 1-Methyl-5-[6-(2-pyridyl)thiohexyl]thio-1,2,3,4-tetrazole]	> 60
CC(CSc1ccccn1)CSc1nnnn1C (stereo not drawn) [Test compound 34, 1-Methyl-5-[2-methyl-3-(2-pyridyl)thiopropyl]thio-1,2,3,4-tetrazole]	> 60
Cn1nnnc1SCCCSc1ccc([N+](=O)[O-])cn1 [Test compound 40, 1-Methyl-5-[3-(5-nitro-2-pyridyl)thiopropyl]thio-1,2,3,4-tetrazole]	> 60
Cc1nnc(SC(C)CCSc2nnnn2C)o1 (stereo not drawn) [Test compound 42, 1-Methyl-5-[3-methyl-3-(5-methyl-1,3,4-oxadiazol-2-yl)thiopropyl]thio-1,2,3,4-tetrazole]	> 60
Cn1nnnc1[S+]([O-])CCCCSc1ccccn1 (stereo not drawn) [Test compound 45, 1-Methyl-1,2,3,4-tetrazol-5-yl 4-(2-pyridyl)thiobutyl sulfoxide]	> 60
CC(CC[S+]([O-])c1nnnn1C)Sc1nnnn1C (stereo not drawn) [Test compound 49, 1-Methyl-1,2,3,4-tetrazol-5-yl 3-methyl-3-(1-methyl-1,2,3,4-tetrazol-5-yl)thiopropyl sulfoxide]	> 60
CCCCOc1ccc(C(=O)CCCSc2nnnn2C)cc1 [Test compound 79, 1-Methyl-5-[3-(4-butoxybenzoyl)propyl]thio-1,2,3,4-tetrazole]	> 60
CC(=O)N(C)CCCSc1nnnn1C [Test compound 83, 1-Methyl-5-[3-(N-methyl-N-acetylamino)propyl]thio-1,2,3,4-tetrazole]	> 60
Cc1nnnn1CCCC(=O)N1CCN(C)CC1 [Test compound 112, 5-Methyl-1-[3-(4-methyl-1-piperazinylcarbonyl)propyl]-1,2,3,4-tetrazole]	> 60
COc1ccc(CCNC(=O)CCCn2nnnc2C)cc1OC [Test compound 114, N-[2-(3,4-Dimethoxyphenyl)ethyl]-4-(5-methyl-1,2,3,4-tetrazol-1-yl)butyramide]	30 to 60
Cc1nnnn1CCCC(=O)N1CCOCC1 [Test compound 117, 5-Methyl-1-(3-morpholinocarbonylpropyl)-1,2,3,4-tetrazole]	30 to 60
